Results from patent US20030224000A1, “Methods for blocking or alleviating staphylococcal nasal colonization by intranasal application of monoclonal antibodies” (priority 2001, published 2003).

Assays:
[1] = system: S. aureus strain MBT 5040; test: Minimal inhibitory concentration (MIC); type: cell-based; conditions: Staphylococcus aureus; S. aureus MBT 5040, clinical MRSA strain
[2] = system: streptomycin resistant S. aureus type 5 (SA5); test: Mouse nasal colonization model, S. aureus preincubated with MAb before instillation; type: in vivo, mice
Description: Kiser et al. developed a staphylococcal nasal colonization model in mice to study staphylococcal factors that influence nasal colonization (30). […] Briefly, streptomycin resistant S. aureus type 5 was grown on high salt Columbia agar to promote capsule formation. The bacteria were washed with sterile saline to remove media components and resuspended at ˜10^8 organisms/animal dose in saline containing various concentrations and combinations of anti-staphylococcal or irrelevant control MAbs. Following a preincubation of 1 hr, the bacteria were repelleted and resuspended in a final volume of 10 μl per animal dose in either saline or saline containing antibody. Mice that have been maintained on streptomycin-containing water for 24 hrs were sedated with anesthesia. Staphylococci were instilled in the nares of the mice by pipetting without contact with the nose.
Generally, following four to seven days during which the animals were maintained on streptomycin-containing water, the animals were sacrificed and the noses removed surgically and dissected. Nasal tissue was vortexed vigorously in saline plus 0.5% Tween-20 to release adherent bacteria, and the saline was plated on Columbia blood agar and tryptic soy agar containing streptomycin to determine colonization.
According to this procedure, streptomycin-resistant S. aureus type 5 (SA5, 1 to 3×10^8/mouse) was preincubated for 1 hr in saline or saline containing A110 (2-3 mg purified IgG/mouse dose of 1-3×10^8 bacteria). Following preincubation, the bacteria were pelleted and resuspended in saline or in saline containing A110 (10 μl/mouse dose). Ten mice each were intranasally instilled with SA5 in saline or SA5 in A110. Table 4 tabulates three experiments showing that nasal application of A110 in PBS blocks and alleviates staphylococcal nasal colonization.

[3] = Table 5: 2 × 10^8 SA5 instilled with MAb, 2 mg/mouse dose

COc1cccc(OC)c1C(=O)N[C@@H]1C(=O)N2[C@@H]1SC(C)(C)[C@@H]2C(=O)O [methicillin]
MIC [1]: > 36 µg/mL

Medi 493: irrelevant control, chimeric IgG1 MAb against RSV (MedImmune)
Effect on staphylococcal nasal colonization in mice ([2]; MAb in saline, Table 5 experiment): no effect | Average number of colonies recovered per mouse [2, 3]: 137 | Number of mice colonized [2, 3]: 9/9
